Assays:
[1] = tested on: length of New Zealand rabbit's penis; assay: Pharmacological activity in vivo (intravenous injection), rabbit penis length; design: species or system New Zealand rabbits; conditions: Table 5; iv 10 mg/kg, 1 mL/kg; sodium nitroprussiate 0.2 mg/kg iv 5 min after; 0-120 min
Method: Experiment 5: Assay of Pharmacological Activity In Vivo (Intravenous Injection)
After accommodating with the environment, the New Zealand rabbits were grabbed everyday. When the rabbits were accustomed to the repeated grabbing, drug administration was began. The animals were randomly divided into groups by weight. The test compounds were separately dissolved in menstruum. […] The corresponding test compounds were injected into the auricular veins of animals of each group. The dosage of the compounds in Table 5 was 10 mg/kg, and the administration volume was 1 mL/kg. The dosage of the compounds in Table 6 was 10 mg/kg, and the administration volume was 2 mL/kg. 0.2 mg/kg sodium nitroprussiate was intravenously injected into the rabbits 5 min after the administration of the test compounds, with the administration volume of 0.5 mL/kg.
The length of the rabbit's penis was measured with a digital caliper before and 10, 15, 30, 50, 60, 90 and 120 min after the administration. Touch of the rabbit's penis by the caliper was avoided during the measurements.

hERG channel = hERG channel (Homo sapiens (Human), UniProt Q12809); assay: hERG potassium channel whole-cell patch clamp on CHO-K1 cell line
hERG channel, sequence (Q12809 whole entry): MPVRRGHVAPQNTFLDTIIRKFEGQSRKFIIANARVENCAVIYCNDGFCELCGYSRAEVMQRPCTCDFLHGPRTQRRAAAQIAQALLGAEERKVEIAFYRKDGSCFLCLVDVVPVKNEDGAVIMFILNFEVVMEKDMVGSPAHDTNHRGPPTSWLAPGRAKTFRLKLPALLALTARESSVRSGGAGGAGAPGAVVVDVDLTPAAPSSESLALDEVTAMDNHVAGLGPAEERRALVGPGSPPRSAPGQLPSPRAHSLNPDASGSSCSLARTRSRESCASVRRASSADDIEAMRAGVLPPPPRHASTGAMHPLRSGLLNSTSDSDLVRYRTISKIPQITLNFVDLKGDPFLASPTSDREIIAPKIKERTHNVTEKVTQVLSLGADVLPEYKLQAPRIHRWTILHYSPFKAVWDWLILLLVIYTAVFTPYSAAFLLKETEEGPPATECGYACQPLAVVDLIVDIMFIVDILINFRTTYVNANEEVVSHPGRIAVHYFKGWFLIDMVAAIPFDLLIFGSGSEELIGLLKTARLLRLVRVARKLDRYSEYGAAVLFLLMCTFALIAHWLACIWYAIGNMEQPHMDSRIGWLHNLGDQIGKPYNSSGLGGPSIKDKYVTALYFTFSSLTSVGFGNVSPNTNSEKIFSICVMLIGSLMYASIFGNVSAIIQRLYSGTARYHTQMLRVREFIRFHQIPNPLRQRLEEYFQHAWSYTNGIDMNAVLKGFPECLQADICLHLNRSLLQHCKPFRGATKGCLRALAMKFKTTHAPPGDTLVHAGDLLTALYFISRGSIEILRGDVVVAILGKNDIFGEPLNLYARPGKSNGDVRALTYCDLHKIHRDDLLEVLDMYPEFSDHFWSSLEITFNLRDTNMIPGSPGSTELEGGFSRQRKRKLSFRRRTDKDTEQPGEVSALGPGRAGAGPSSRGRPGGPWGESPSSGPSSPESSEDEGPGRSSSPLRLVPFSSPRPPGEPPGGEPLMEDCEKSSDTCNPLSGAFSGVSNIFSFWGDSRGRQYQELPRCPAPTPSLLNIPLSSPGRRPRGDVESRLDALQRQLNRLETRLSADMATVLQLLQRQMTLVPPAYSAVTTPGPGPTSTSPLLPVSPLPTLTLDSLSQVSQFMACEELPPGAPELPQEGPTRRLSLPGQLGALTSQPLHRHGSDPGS
Text: Experiment 8: Detection of Inhibitory Effect of the Compounds of the Present Invention on hERG Potassium Channel by the Patch Clamp Method
Rapidly activated human delayed rectifying outward potassium current (IKr) is mainly mediated by hERG ion channel and is involved in repolarization of human cardiac muscle cell. Clinically, blocking of the current by a drug is the main cause of QT interval prolongation syndrome, acute arrhythmia and even sudden death. The main purpose of the experiment is to test the blocking effect of the compounds of the present invention on hERG channel, and to determine the half maximal inhibitory concentration (IC50) of the compounds.
The experiment mainly included: (1) recording hERG current by patch clamp technique on CHO-K1 cell line which stably expressed hERG channel; (2) calculating the Inhibition rate of each concentration according to hERG tail current; (3) testing each compound at 5 concentrations to calculate IC50; (4) testing 2 cells at each concentration; (5) a positive control.
The structures and synthesis of Compound 88 (WO-88) and Compound 93 (WO-93) as disclosed in WO200119802A were described in Example 55 and Example 56.
Drug for positive control: Amitriptyline hydrochloride (Sigma-Aldrich, an international standard blocker for hERG channel)
Pippette Solution (in mM): KCl 120, KOH 31.25, CaCl2 5.374, MgCl2 1.75, Ethylene glycol-bis(β-aminoethyl ether)-N,N,N′,N′-tetraacetic acid (EGTA) 10, HEPES 10, Na2-ATP 4, adjusted to a pH of 7.2 with 1N potassium hydroxide; adjusted to an osmotic pressure of 280-290 mOsm; preserved at −20° C. after filtration.
Preparation of compounds: Some of the compounds of the present invention and Amitriptyline hydrochloride as the positive control drug were separately dissolved in 100% DMSO (Merck, 61850125001730), then prepared into stock solutions of 30 mM. Before the experiment, the above stock solutions were diluted with DMSO to a concentration of 1000-fold of the experimental concentration. Then the diluted solutions were further diluted with extracellular solution by 1:1000 to the required experimental concentration. The final concentration of DMSO in the extracellular solution was kept as 0.1%.
Stable cell line CHO-hERG was purchased from AVIVA Company. The hERG current on the cell line was recorded. For the purpose of quality control, the smallest seal resistance was no less than 500 MΩ, and the hERG current was no less than 0.4 nA.
The hERG current was recorded by a whole-cell patch clamp technique. Cell suspension was added into a 35-mm culture dish. The culture dish was placed on the objective table of an inverted microscope. Upon cell attachment, perfusion was conducted with the extracellular solution at a flow rate of 1-2 mL/min.
Glass microelectrode with the pipette tip resistance of 2-5 MΩ was controlled by a microelectrode puller via a two-step process. After the whole-cell record was set up, the clamp potential was kept at −80 mV. The cell was depolarized to +60 mV by applying a voltage stimulus, and then repolarized to −50 mV to obtain the hERG tail current. Recordation was conducted after the current was stable. The extracellular perfusion was started from the lowest concentration, with 5-10 min for each concentration until the current was stable, and then conducted with the next concentration.
Stimulus payment and signal collection were performed by A/D-D/A conversion using Digidata 1440 (Molecular Devices) and pCLAMP software (Version 10.2, Molecular Devices). Signal amplification was performed on a patch clamp amplifier (Multiclamp 700B, Molecular Devices), with a filter of 1 KHz. Further data analysis and curve fitting were conducted by Clampfit (version 10.2, Molecular Devices) and Prism. The data were presented as mean value±standard deviation.
In the process of data analysis, the peak value and the baseline of the tail current were corrected when determining the blocking effect on hERG.

Compound: COc1ccc(CNc2nc(N3CC4CC4C3)ncc2C(=O)N[C@H]2CC[C@H](O)CC2)cc1Cl (stereo partly drawn) [Compound 11, 2-(3-azabicyclo[3.1.0]hexan-3-yl)-4-((3-chloro-4-methoxybenzyl)amino)-N-(trans-4-hydroxycyclohexyl)pyrimidine-5-formamide]
- AUC of penis length [1]: 323.3 mm × min
- IC50 (hERG channel): > 30 µM
- inhibitory effect on hERG channel (in words) (hERG channel; human, CHO-K1 cells stably expressing hERG channel, pH 7.4): none of Compound 3, 11 and 50 of the present invention had a significant inhibitory effect
